Test results from patent US20250270246A1, “LINCOSAMIDES AND USES THEREOF” (President and Fellows of Harvard College, priority 2022, published 2025).
Counter-ions that a name gives are not always drawn. Like-named read-outs stand apart in the source and are kept apart here.

What was measured:
Assay in all cases: MIC by broth microdilution (CLSI)
Assay type in all cases: cell-based
[1] = test system: K. pneumoniae HAV#402, FQ-R; details: Klebsiella pneumoniae, read-out: MIC K. pneumoniae HAV#402, FQ-R
How it was run: (§1)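 Testing follows CLSI broth microdilution; P. aeruginosa is run in Chelex 100-pretreated cation-adjusted broth, other organisms in untreated cation-adjusted Mueller-Hinton broth. Final inoculum is 5×10^5 CFU/mL and the top concentration is 64 μg/mL. MICs reflect inhibition of visible growth at 24 h.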

[2] = test system: E. faecalis ATCC 29212 (HAV#005); details: Enterococcus faecalis, ATCC29212, 24 h, read-out: MIC E. faecalis ATCC 29212
How it was run: as §1

[3] = test system: S. aureus ATCC 29213 (HAV#001); details: Staphylococcus aureus, ATCC29213, 24 h, read-out: MIC S. aureus ATCC 29213
How it was run: as §1

E. coli HAV#040, LptD = details: Escherichia coli, 24 h, read-out: MIC E. coli HAV#040, LptD
How it was run: as §1

[4] = test system: E. coli ATCC 25922 (HAV#006); details: Escherichia coli, ATCC25922, 24 h, read-out: MIC E. coli ATCC 25922
How it was run: as §1

[5] = test system: S. pyogenes HAV#033, c-ermB; details: Streptococcus pyogenes, read-out: MIC S. pyogenes HAV#033, c-ermB
How it was run: as §1

E. coli HAV#038, ΔTolC = details: Escherichia coli, 24 h, read-out: MIC E. coli HAV#038, ΔTolC
How it was run: as §1

[6] = test system: E. faecium HAV#318, VRE; clinical; details: Enterococcus faecium, read-out: MIC E. faecium HAV#318, VRE
How it was run: as §1

[7] = test system: S. aureus HAV#031, c-ermA; details: Staphylococcus aureus, read-out: MIC S. aureus HAV#031, c-ermA
How it was run: as §1

[8] = test system: K. oxytoca HAV#450; Clinical; details: Klebsiella oxytoca, read-out: MIC K. oxytoca HAV#450
How it was run: as §1

[9] = test system: A. baumannii ATCC 19606 (HAV#010); details: Acinetobacter baumannii, ATCC19606, 24 h, read-out: MIC A. baumannii ATCC 19606
How it was run: as §1

S. aureus HAV#216, cfr = details: Staphylococcus aureus, read-out: MIC S. aureus HAV#216, cfr
How it was run: as §1

K. pneumoniae JMI-991193 = details: Klebsiella pneumoniae, JMI991193, 24 h, read-out: MIC K. pneumoniae JMI-991193
How it was run: as §1

S. aureus MMX 3035 = details: Staphylococcus aureus, MMX3035, 24 h, read-out: MIC S. aureus MMX 3035
How it was run: as §1

E. coli ΔtolC = details: Escherichia coli, 24 h, read-out: MIC E. coli ΔtolC, ΔtolC; CaMHB, 24 h incubation
How it was run: as §1

S. pneumoniae c-ermB = details: Streptococcus pneumoniae, 24 h, read-out: MIC S. pneumoniae c-ermB
How it was run: as §1

E. coli lptD mutant = details: Escherichia coli, 24 h, read-out: MIC E. coli lptD mutant, lptD mutant / ΔlptD mutant; CaMHB, 24 h incubation
How it was run: as §1

S. aureus Clinical (cfr) = details: Staphylococcus aureus, 24 h, read-out: MIC S. aureus Clinical (cfr)
How it was run: as §1

E. faecium JMI-990536 = details: Enterococcus faecium, JMI990536, 24 h, read-out: MIC E. faecium JMI-990536
How it was run: as §1

[10] = HAV#005, ATCC 29212, CaMHB, 24 h incubation
[11] = HAV#001, ATCC 29213, CaMHB, 24 h incubation
[12] = HAV#006, ATCC 25922, CaMHB, 24 h incubation
[13] = HAV#010, ATCC 19606, CaMHB, 24 h incubation
[14] = JMI-991193, CaMHB, 24 h incubation
[15] = MMX 3035, CaMHB, 24 h incubation
[16] = Clinical (cfr), CaMHB, 24 h incubation
[17] = JMI-990536, CaMHB, 24 h incubation

CC(C)C[C@@H]1CCO[C@@H]2[C@@H](C1)CN(C)[C@@H]2C(=O)N[C@H]1C2OC(SCC/C=C\[C@H]1C)C(O)C(O)C2O (single isomer, unassigned) [FSA1508001, formate]
MIC ([1]; 24 h): 64 µg/mL | MIC [2]: 0.125 µg/mL | MIC [3]: 0.25 µg/mL | MIC (E. coli HAV#040, LptD): 0.25 µg/mL | MIC [4]: 8 µg/mL | MIC ([5]; 24 h): 0.25 µg/mL | MIC (E. coli HAV#038, ΔTolC): 0.25 µg/mL | MIC ([6]; 24 h): 0.25 µg/mL | MIC ([7]; 24 h): 0.5 µg/mL | MIC ([8]; 24 h): 16 µg/mL | MIC [9]: 2 µg/mL | MIC (S. aureus HAV#216, cfr; 24 h): 1 µg/mL

CC(C)C[C@@H]1CCO[C@@H]2[C@H](CN[C@@H]2C(=O)N[C@H]2C3OC(SCC/C=C\[C@H]2C)C(O)C(O)C3O)C1 (single isomer, unassigned) [FSA1507066, formate]
MIC ([1]; 24 h): 16 µg/mL | MIC [2]: ≤ 0.06 µg/mL | MIC [3]: ≤ 0.06 µg/mL | MIC (E. coli HAV#040, LptD): 0.25 µg/mL | MIC [4]: 4 µg/mL | MIC ([5]; 24 h): 0.125 µg/mL | MIC (E. coli HAV#038, ΔTolC): 0.125 µg/mL | MIC ([6]; 24 h): 0.25 µg/mL | MIC ([7]; 24 h): 0.5 µg/mL | MIC ([8]; 24 h): 4 µg/mL | MIC [9]: 2 µg/mL | MIC (S. aureus HAV#216, cfr; 24 h): 0.5 µg/mL

CC(C)C[C@@H]1CCO[C@@H]2[C@H](CN[C@@H]2C(=O)N[C@H]2C3OC(SCC/C=C/[C@@H]2C)C(O)C(O)C3O)C1 (single isomer, unassigned) [FSA1507068, formate salt]
MIC ([1]; FQ-R, CaMHB, 24 h incubation): 8 µg/mL | MIC [2, 10]: 0.125 µg/mL | MIC [3, 11]: ≤ 0.06 µg/mL | MIC (E. coli HAV#040, LptD): 0.5 µg/mL | MIC [4, 12]: 4 µg/mL | MIC ([5]; c-ermB, CaMHB, 24 h incubation): 0.25 µg/mL | MIC (E. coli HAV#038, ΔTolC): 0.5 µg/mL | MIC ([6]; CaMHB, 24 h incubation): 0.5 µg/mL | MIC ([7]; c-ermA, CaMHB, 24 h incubation): 0.5 µg/mL | MIC ([8]; CaMHB, 24 h incubation): 8 µg/mL | MIC [9, 13]: 4 µg/mL | MIC (S. aureus HAV#216, cfr; cfr, CaMHB, 24 h incubation): 2 µg/mL

CC(C)C[C@@H]1CCO[C@@H]2[C@H](CN[C@@H]2C(=O)N[C@H]2[C@H]3O[C@H](S[C@H](c4cn(-c5cccc(Cl)c5)nn4)C/C=C\[C@H]2C)[C@H](O)[C@@H](O)[C@H]3O)C1 [FSA1609015, (4S,5aS,8S,8aR)—N-((1R,3S,7R,8R,9R,10R,11S,12R,Z)-3-(1-(3-chlorophenyl)-1H-1,2,3-triazol-4-yl)-10,11,12-trihydroxy-7-methyl-13-oxa-2-thiabicyclo[7.3.1]tridec-5-en-8-yl)-4-isobutyloctahydro-2H-oxepino[2,3-c]pyrrole-8-carboxamide formate salt]
MIC [2]: 2 µg/mL | MIC (K. pneumoniae JMI-991193): 32 µg/mL | MIC (S. aureus MMX 3035): 2 µg/mL | MIC (E. coli ΔtolC): 2 µg/mL | MIC [3]: 1 µg/mL | MIC [4]: 8 µg/mL | MIC (S. pneumoniae c-ermB): 0.25 µg/mL | MIC [9]: 8 µg/mL | MIC (E. coli lptD mutant): 2 µg/mL | MIC (S. aureus Clinical (cfr)): 2 µg/mL | MIC (E. faecium JMI-990536): 0.5 µg/mL

CC(C)C[C@@H]1CCO[C@@H]2[C@@H](C1)CN(C)[C@@H]2C(=O)N[C@@H]1C/C=C\CCS[C@H]2O[C@H]1[C@H](O)[C@H](O)[C@H]2O [FSA1508003, (4S,5aS,8S,8aR)-4-isobutyl-7-methyl-8-(((1R,8R,9R,10R,11S,12R,Z)-10,11,12-trihydroxy-13-oxa-2-thiabicyclo[7.3.1]tridec-5-en-8-yl)carbamoyl) octahydro-2H-oxepino[2,3-c]pyrrol-7-ium formate]
MIC ([1]; 24 h): 16 µg/mL | MIC [2]: 0.125 µg/mL | MIC [3]: 0.125 µg/mL | MIC (E. coli HAV#040, LptD): 0.25 µg/mL | MIC [4]: 4 µg/mL | MIC ([5]; 24 h): 2 µg/mL | MIC (E. coli HAV#038, ΔTolC): 0.25 µg/mL | MIC ([6]; 24 h): 1 µg/mL | MIC ([7]; 24 h): 2 µg/mL | MIC ([8]; 24 h): 8 µg/mL | MIC [9]: 2 µg/mL | MIC (S. aureus HAV#216, cfr; 24 h): 8 µg/mL

CC(C)C[C@@H]1CCO[C@@H]2[C@H](CN[C@@H]2C(=O)N[C@@H]2C/C=C\C[C@@H](CO)S[C@H]3O[C@H]2[C@H](O)[C@H](O)[C@H]3O)C1 [FSA1606034, (4S,5aS,8S,8aR)-4-isobutyl-N-((1R,3S,8R,9R,10R,11S,12R,Z)-10,11,12-trihydroxy-3-(hydroxymethyl)-13-oxa-2-thiabicyclo[7.3.1]tridec-5-en-8-yl) octahydro-2H-oxepino[2,3-c]pyrrole-8-carboxamide hydrochloride salt]
MIC [2, 10]: 2 µg/mL | MIC (K. pneumoniae JMI-991193; [14]): > 64 µg/mL | MIC (S. aureus MMX 3035; [15]): 64 µg/mL | MIC (E. coli ΔtolC): 2 µg/mL | MIC [3, 11]: 1 µg/mL | MIC [4, 12]: 64 µg/mL | MIC (S. pneumoniae c-ermB): 16 µg/mL | MIC [9, 13]: > 64 µg/mL | MIC (E. coli lptD mutant): 8 µg/mL | MIC (S. aureus Clinical (cfr); [16]): > 64 µg/mL | MIC (E. faecium JMI-990536; [17]): > 64 µg/mL

CC(C)C[C@@H]1CCO[C@@H]2[C@H](CN[C@@H]2C(=O)N[C@@H]2C/C=C\CCS[C@H]3O[C@H]2[C@H](O)[C@H](O)[C@H]3O)C1 [FSA1507013, (4S,5aS,8S,8aR)-4-isobutyl-8-(((1R,8R,9R,10R,11S,12R,Z)-10,11,12-trihydroxy-13-oxa-2-thiabicyclo[7.3.1]tridec-5-en-8-yl)carbamoyl) octahydro-2H-oxepino[2,3-c]pyrrol-7-ium formate]
MIC ([1]; 24 h): 8 µg/mL | MIC [2]: 0.125 µg/mL | MIC [3]: 0.125 µg/mL | MIC (E. coli HAV#040, LptD): 0.5 µg/mL | MIC [4]: 2 µg/mL | MIC ([5]; 24 h): 0.5 µg/mL | MIC (E. coli HAV#038, ΔTolC): 0.125 µg/mL | MIC ([7]; 24 h): 4 µg/mL | MIC ([8]; 24 h): 2 µg/mL | MIC [9]: 2 µg/mL

CC(C)C[C@@H]1CCO[C@@H]2[C@H](CN[C@@H]2C(=O)N[C@@H]2C/C=C\C[C@H](CO)S[C@H]3O[C@H]2[C@H](O)[C@H](O)[C@H]3O)C1 [FSA1606033, (4S,5aS,8S,8aR)-4-isobutyl-N-((1R,3R,8R,9R,10R,11S,12R,Z)-10,11,12-trihydroxy-3-(hydroxymethyl)-13-oxa-2-thiabicyclo[7.3.1]tridec-5-en-8-yl) octahydro-2H-oxepino[2,3-c]pyrrole-8-carboxamide hydrochloride salt]
MIC [2, 10]: 1 µg/mL | MIC (K. pneumoniae JMI-991193; [14]): > 64 µg/mL | MIC (S. aureus MMX 3035; [15]): 16 µg/mL | MIC (E. coli ΔtolC): 1 µg/mL | MIC [3, 11]: 1 µg/mL | MIC [4, 12]: 16 µg/mL | MIC (S. pneumoniae c-ermB): 4 µg/mL | MIC [9, 13]: 64 µg/mL | MIC (E. coli lptD mutant): 4 µg/mL | MIC (S. aureus Clinical (cfr); [16]): 32 µg/mL | MIC (E. faecium JMI-990536; [17]): 16 µg/mL
